Legend:
[1] = system: PC-3 cells; experiment: Real time cell migration assay (xCELLigence, CIM plates); format: cell-based, human
Procedure: (§1) Human prostate cancer cell line PC-3 cells (obtained from ATCC, Manassas, USA; ATCC Number: CRL-1435) were cultured in F-12 (Gibco) and Advanced DMEM (Gibco) (1:1) with 10% FBS, 1% penicillin/streptomycin and 1% L-glutamine. Rat pheochromocytoma PC-12 cells (obtained from ATCC, Manassas, USA; ATCC Number: CRL-1721) were cultured in Advanced DMEM (Gibco) with 5% FBS, 10% heat-inactivated horse serum, 1% penicillin/streptomycin and 1% L-glutamine.
Cell migration assay was performed on a Real-Time Cell Analyzer Dual Plate (RTCA DP) Instrument, xCELLigence System (ACEA Biosciences). CIM plates were coated with fibronectin (10 μg/ml, BD Biosciences) on the down and upper side of the microporous PET membrane for 30 min at room temperature and 2 hours at 37 °C, respectively. Excess fibronectin was removed and wells washed with phosphate buffer saline (PBS). Compounds (10 μM) were added to the complete media (lower chambers) or serum-free media (upper chambers). 0.1% DMSO was used as a control. 2 × 10^4 cells were plated per well. In additional experimental setting, inhibitors were added only to the upper chambers 3 hours after experiment started in order to measure their impact only on the cell migration and not the adhesion. Impedance data, reported as cell index, were measured continuously every 15 min for 72 hours and then analyzed with the RTCA Software (ACEA Biosciences, Inc.). Results are normalized to cells treated with DMSO.

[2] = system: PC-12 cells; experiment: Neurite outgrowth assay; format: cell-based, rat; conditions: 10 µM; 48 h; vs DMSO control
Procedure: as §1
PC-12 cells were seeded in 96-well plates (4 × 10^4/well) coated with poly-L-lysine. Next day, the cells were treated with compounds (10 µM) in serum-free medium, and neurite outgrowth was measured after 48 h using Neurite Outgrowth Staining Kit (Molecular Probes), in accordance with the manufacturer’s instructions. Fluorescence intensity was measured at 525 nm with excitation at 483 nm for cell viability indicator and at 567 nm with excitation at 554 nm for cell membrane indicator. Results, expressing increased neurite outgrowth, were normalized to cells treated with DMSO.

[3] = biological target: cathepsin X (Homo sapiens, UniProt Q9UBR2); experiment: Labeling of cathepsin X with activity-based probe DCG-04 in PC-3 cell lysate; format: biochemical; set-up: endogenous in cells; host or cells: PC-3; conditions: 10 µM inhibitor
Sequence of cathepsin X (Q9UBR2 62-303): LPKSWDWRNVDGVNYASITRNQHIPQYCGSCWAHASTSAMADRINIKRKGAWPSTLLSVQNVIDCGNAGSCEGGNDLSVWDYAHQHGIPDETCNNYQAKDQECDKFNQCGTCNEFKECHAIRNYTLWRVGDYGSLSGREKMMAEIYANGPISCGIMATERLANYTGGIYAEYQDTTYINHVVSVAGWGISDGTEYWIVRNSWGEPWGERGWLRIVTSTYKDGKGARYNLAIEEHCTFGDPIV
Procedure: Evaluation of cellular uptake and retention of compound 22: sample preparation and LC- […]
PC-3 cells were treated for 1 hour with compound 22 (50 µM). Cells were washed twice with cold PBS, trypsinized, washed once more and centrifuged. A pellet of cells was resuspended in 200 µL of PBS (or in 200 µL of PBS containing 5µM inhibitor for standard addition) and transferred to 1.5 mL Eppendorf vials prefilled with 0.1 mm and 0.5 mm glass beads (NextAdvance, USA). All cell samples were then homogenized with a BulletBlender (NextAdvance, USA) for 5 min at speed setting »6«. […]
(2.30;50), (2.50;50), (2.6;5). […] ESI Jetstream parameters were set as follows: drying gas temperature 275 °C, drying gas flow 5 L/min, nebulizer 45 psi, sheath gas temperature 320 °C, sheath gas flow 11 L/min, capillary entrance voltage 4000 V and nozzle voltage 1000 V. Quadrupoles Q1 and Q3 were set at the widest resolution (2.5 amu) and multiple reaction monitoring (MRM) mass transitions used for the quantification of recorded traces are presented in Supplementary Table S4. […]
PC-3 cell lysate was diluted in cathepsin X assay buffer (1 mg/ml protein concentration). […] After blocking with 5% skimmed milk powder in TBS with 0.05% Tween 20, membrane was incubated with streptavidin-HRP (1:5000; Jackson ImmunoResearch) for 1 hour and proteins were detected with […]

delay of cathepsin X labeling by DCG-04 [3]: approximately 20 minutes
SMILES: CC(C)n1cnnc1SCC(=O)c1ccc2c(c1)OCCO2 [Compound 22, 1-(2,3-Dihydrobenzo[b][1,4]dioxin-6-yl)-2-((4-isopropyl-4H-1,2,4-triazol-3-yl)thio)ethan-1-one]
inhibition at 10 µM ([1]; Homo sapiens, PC-3, 10 μM, compound in upper and bottom compartments, vs DMSO): 15 to 30%
inhibition of PC-3 cell migration, alternative setting excluding adhesion ([1]; compound only in upper compartment, added 3 hours after seeding): inhibits migration
increase of neurite outgrowth [2]: 85%
